Where two headings read alike, the source gives them in different places.
Experiments:
[1] = tested on: thyroid cancer cells TPC-1; assay: MTT antiproliferative assay; type: cell-based; details: Homo sapiens, TPC1, 48 h, MTT assay, 48 h, average with SD (n = 3, duplicate); read-out: IC50 (μM), antiproliferative activity against thyroid cancer cells TPC-1
Experimental: Thyroid cancer cells TCP-1 were provided by Wuhan Servicebio Co., Ltd. TCP-1 cells are cultured in RPMI-1640 medium supplemented with 10% foetal bovine serum (FBS), 100 U/mL penicillin, and 0.1 mg/mL streptomycin. All cells are maintained in a humidified incubator at 37 °C with 5% CO2.
The TCP-1 cell line is seeded into a 96-well plate and incubated under conditions of 37 °C and 5% CO2. After the cells adhere, different concentrations of compounds are added and the incubation continues for 48 h under the same conditions. Subsequently, MTT reagent is added to the medium and the incubation is continued for an additional 4 h at 37 °C. After the incubation, the medium is aspirated, and 150 μL of DMSO solution is added to dissolve the purple-blue crystals by shaking. The absorbance of the solution is measured at a wavelength of 490 nm. The IC50 value of the compounds is calculated using SPSS software version 20.0.

[2] = tested on: MCF7 cells; details: cited from earlier work

| Structure (SMILES) | IC50 [1] [µM] | melting point [°C] | IC50 ([2]; read-out: IC50, antiproliferative activity against MCF7 cells) [nM] | IC50 ([2]; read-out: IC50, proliferative activity of MCF7 cells) [nM] |
| --- | --- | --- | --- | --- |
| CNC(=O)c1ccccc1Nc1nc(N/N=C/c2ccc(O)cc2)ncc1Cl [14d, (E)-2-((5-chloro-2–(2-(4-hydroxybenzylidene)hydrazineyl)pyrimidin-4-yl)amino)-N-methylbenzamide] | 0.255 ± 0.025 | 187.8 to 189.2 |  |  |
| CNC(=O)c1ccccc1Nc1nc(N/N=C/c2ccc(C(F)(F)F)cc2)ncc1Cl [14e, (E)-2-((5-chloro-2–(2-(4-(trifluoromethyl)benzylidene)hydrazineyl)pyrimidin-4-yl)amino)-N-methylbenzamide] | 0.193 ± 0.029 | 206.6 to 208.8 |  |  |
| CNC(=O)c1ccccc1Nc1nc(N/N=C/c2ccc(Br)cc2)ncc1Cl [14h, (E)-2-((2–(2-(4-bromobenzylidene)hydrazineyl)-5-chloropyrimidin-4-yl)amino)-N-methylbenzamide] | 0.59 ± 0.024 | 192.1 to 193.2 |  |  |
| CNC(=O)c1ccccc1Nc1nc(N/N=C/c2ccc([N+](=O)[O-])cc2)ncc1Cl [14i, (E)-2-((5-chloro-2–(2-(4-nitrobenzylidene)hydrazineyl)pyrimidin-4-yl)amino)-N-methylbenzamide] | 0.157 ± 0.008 | 201.7 to 202.8 |  |  |
| CNC(=O)c1ccccc1Nc1nc(N/N=C/c2ccc(C#N)cc2)ncc1Cl [14j, (E)-2-((5-chloro-2–(2-(4-cyanobenzylidene)hydrazineyl)pyrimidin-4-yl)amino)-N-methylbenzamide] | 0.126 ± 0.011 | 200.7 to 202.1 |  |  |
| CNC(=O)c1ccccc1Nc1nc(N/N=C/c2cccc(OC)c2)ncc1Cl [14k, (E)-2-((5-chloro-2–(2-(3-methoxybenzylidene)hydrazineyl)pyrimidin-4-yl)amino)-N-methylbenzamide] | 0.517 ± 0.031 | 199.3 to 200.4 |  |  |
| CNC(=O)c1ccccc1Nc1nc(N/N=C/c2ccc(OC)c(OC)c2)ncc1Cl [14o, (E)-2-((5-chloro-2–(2-(3,4-dimethoxybenzylidene)hydrazineyl)pyrimidin-4-yl)amino)-N-methylbenzamide] | 0.434 ± 0.012 | 214.1 to 215.2 |  |  |
| CNC(=O)c1ccccc1Nc1nc(N/N=C/c2ccc(OC)cc2F)ncc1Cl [14p, (E)-2-((5-chloro-2–(2-(2-fluoro-4-methoxybenzylidene)hydrazineyl)pyrimidin-4-yl)amino)-N-methylbenzamide] | 0.228 ± 0.065 | 218.1 to 219.4 |  |  |
| CNC(=O)c1ccccc1Nc1nc(N/N=C/c2ccc(OC)c(F)c2)ncc1Cl [14q, (E)-2-((5-chloro-2–(2-(3-fluoro-4-methoxybenzylidene)hydrazineyl)pyrimidin-4-yl)amino)-N-methylbenzamide] | 0.386 ± 0.047 | 234.1 to 235.7 |  |  |
| CNC(=O)c1ccccc1Nc1nc(N/N=C/c2ccc(F)cc2F)ncc1Cl [14r, (E)-2-((5-chloro-2–(2-(2,4-difluorobenzylidene)hydrazineyl)pyrimidin-4-yl)amino)-N-methylbenzamide] | 0.122 ± 0.032 | 243.2 to 245.1 |  |  |
| CNC(=O)c1ccccc1Nc1nc(N/N=C/c2ccccn2)ncc1Cl [14s, (E)-2-((5-chloro-2–(2-(pyridin-2-ylmethylene)hydrazineyl)pyrimidin-4-yl)amino)-N-methylbenzamide] | 0.272 ± 0.016 | 217.1 to 218.2 |  |  |
| CNC(=O)c1ccccc1Nc1nc(N/N=C/c2cccnc2)ncc1Cl [14t, (E)-2-((5-chloro-2–(2-(pyridin-3-ylmethylene)hydrazineyl)pyrimidin-4-yl)amino)-N-methylbenzamide] | 0.243 ± 0.001 | 217.1 to 218.1 |  |  |
| CNC(=O)c1ccccc1Nc1nc(N/N=C/c2cccs2)ncc1Cl [14v, (E)-2-((5-chloro-2–(2-(thiophen-2-ylmethylene)hydrazineyl)pyrimidin-4-yl)amino)-N-methylbenzamide] | 0.153 ± 0.005 | 214.6 to 216.1 |  |  |
| CNC(=O)c1ccccc1Nc1nc(N/N=C/c2ccc3cccnc3c2)ncc1Cl [14w, (E)-2-((5-chloro-2–(2-(quinolin-7-ylmethylene)hydrazineyl)pyrimidin-4-yl)amino)-N-methylbenzamide] | 0.413 ± 0.015 | 241.7 to 242.1 |  |  |
| CNC(=O)c1ccccc1Nc1nc(N/N=C/c2c[nH]c3ccccc23)ncc1Cl [14x, (E)-2-((2–(2-((1H-indol-3-yl)methylene)hydrazineyl)-5-chloropyrimidin-4-yl)amino)-N-methylbenzamide] | 0.357 ± 0.01 | 203.3 to 204.8 |  |  |
| CNC(=O)c1ccccc1Nc1nc(N/N=C/c2c[nH]c3ccc(OC)cc23)ncc1Cl [14z, (E)-2-((5-chloro-2–(2-((5-methoxy-1H-indol-3-yl)methylene) hydrazineyl)pyrimidin-4-yl)amino)-N-methylbenzamide] | 0.624 ± 0.044 | 217.1 to 218.2 |  |  |
| C/C(=N\N=c1/[nH]c2cc(F)c(F)cc2n1C)c1ncccn1 [compound 8] |  |  | 3.3 |  |
| Cn1c2nc(N/N=C/c3cccc(Br)c3)nc(=O)c-2cc2ccccc21 [compound 9] |  |  |  | 0.1 |
